The values below come from PubChem BioAssay (NCI).

Holding throughout (test): NCI tumour cell line growth inhibition, 48 h
In assay [1] the test system is MOLT-4 leukemia.
Assay [2] relates to OVCAR-8 ovarian.
For assay [3], the system named is IGROV1 ovarian.
Assay [4] deals with NCI-H23 lung.
Assay [5] has as its system UO-31 renal.
Assay [6] deals with HCT-15 colon.
The subject of assay [7] is HS 578T breast.
Assay [8] concerns OVCAR-4 ovarian.
Assay [9] has as its system SR leukemia.
In assay [10] the test system is BT-549 breast.

Each structure is given as a SMILES string. Where “and” joins values, the source holds several entries; their conditions need not be identical. Identical values can stand only once.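 Interpolation was linear, between the two tested concentrations surrounding the appropriate level; five concentrations were tested over 48 hours in 96-well plates. Abbreviation: GI50, concentration required for 50% inhibition of growth. Definition used: TGI = concentration required for complete inhibition of growth.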 *1 amine or outer side, *2 acyl side, *3 side chain or, on linkers, in order; H or OH if unused. Where a SMILES comes first, the peptide text is derived from it. Bridges are numbered along the chain shown (N, C = ends). Roman numbers before positions name the chains, in order. [ ]: non-standard residue; d: D form. Actinocin(9to1) = Cc1c2oc3c(C)ccc(C(=O)[*:1])c3nc-2c(C(=O)[*:2])c(N)c1=O; NMeT = CN[CH](C(=O)O)[CH](C)O; Sar = CNCC(=O)O Some results are limits rather than exact numbers.

As to `Cc1c2oc3c(C)ccc(C(=O)NC4C(=O)NC(C(C)C)C(=O)N5CCCC5C(=O)N(C)CC(=O)N(C)C(C(C)O)C(=O)OC4C)c3nc-2c(C(=O)NC2C(=O)NC(C(C)C)C(=O)N3CCCC3C(=O)N(C)CC(=O)N(C)C(C(C)O)C(=O)OC2C)c(N)c1=O` (stereo unspecified) (I: TVP[Sar][NMeT] / II: TVP[Sar][NMeT]; ester I:1-I:C, II:1-II:C; linker I:N-II:N via Actinocin(9to1); configuration not given here), the TGI in [1] is 11.1 µM and > 1 µM; in assay [2] it was above 43.8 µM; in assay [3] it was above 41.7 µM; in assay [4] it was 18.3 µM and > 1 µM; in [5], 24.8 µM and > 1 µM; in [6], above 100 µM. The TGI is above 27.1 µM in assay [7]; 32.4 µM and > 1 µM in assay [8]; 5.35 µM and > 1 µM in [9]. Besides, the GI50 was 2.99 µM and > 1 µM in [5]; 14.1 µM and > 1 µM in assay [6]; 6.1 µM and > 1 µM in assay [8]; 1.1 µM and 0.187 µM in assay [9].
As for `NC[C@H]1Nc2ccccc2[C@@H](O)C1O` (stereo partly specified), the TGI in [1], in assay [2], in assay [3], in [4], in assay [5] and in assay [6] was above 100 µM in each case. In addition, the TGI in [7], in assay [8] and in assay [9] was above 100 µM in each case.
In the case of `O=C(O)c1ccc(Oc2nccc(-c3c(-c4ccc(F)cc4)ncn3C3CCNCC3)n2)cc1`, the GI50 in assay [1], in assay [2], in [3], in assay [5], in [6] and in assay [7] was above 25 µM throughout. In addition, the GI50 in [10] and in [8] was above 25 µM throughout. Besides, the TGI in [1], in assay [2], in assay [3], in [5], in assay [6] and in [7] was above 25 µM each time. For the same compound, the TGI in assay [10] and in assay [8] was above 25 µM each time.
On to `COC(=O)CC[C@]1(C)O[C@H]2[C@H]([C@@H](C)CCCC(C)=O)OC(=O)[C@@H]2C[C@H]1O`, for which the GI50 is above 100 µM in [1]; above 100 µM in assay [2]; 39.4 µM in assay [3]; 67.8 µM in assay [4]; above 100 µM in [5]; above 100 µM in assay [6]. For the same compound, the GI50 in assay [10], in [8] and in [9] was above 100 µM in each case. Also, the TGI in [1], in assay [2], in assay [3], in assay [4], in assay [5] and in assay [6] was above 100 µM in each case. In addition, the TGI in assay [10], in assay [8] and in [9] was above 100 µM throughout.
`CNC(=S)NC(=O)c1c(Cl)n(C(=O)OC(C)(C)C)c2ccccc12`: the GI50 in assay [2] was 89.1 µM; in assay [3], 21 µM; in assay [4] it was 53.1 µM; in assay [5] it was 73.8 µM; in assay [6] it was 86 µM; in assay [7], 45.8 µM. Further, the GI50 in assay [10] is 53.2 µM; in [8], above 100 µM. Further, the TGI in assay [2], in [3], in assay [4], in [5], in assay [6] and in [7] was above 100 µM in each case. Also, the TGI in [10] and in assay [8] was above 100 µM in each case.
On to `O=C1c2ccccc2-c2oc(=O)c3ccccc3c21`, for which the TGI in assay [1], in [2], in assay [3], in [4], in [5] and in [6] was above 100 µM in each case. Moreover, the TGI in assay [7] and in assay [8] was above 100 µM in each case.
For the compound `Cc1ccc(NC2=C(Cl)C(=O)N(Cc3ccc(Cl)cc3)C2=O)cc1O`, the GI50 was above 100 µM in assay [1]; 7.1 µM in assay [2]; 11.2 µM in [3]; 5.56 µM in [4]; 17.6 µM in assay [5]; 16.4 µM in [7]. Moreover, the GI50 was 25.4 µM in assay [8] and 71.4 µM in [9]. For the same compound, the TGI in [1] was above 100 µM; in [2], 38.6 µM; in [3] it was 33 µM; in assay [4], 23.7 µM; in [5] it was 69 µM; in [7] it was 75.8 µM. For the same compound, the TGI in assay [8] and in assay [9] was above 100 µM each time.
